Laboratory results published in patent US6737383B1, “Herbicidal oxadiazolidines” (priority 1999, dated 2004).

Assays:
[1] = system: bedstraw; assay: Test B pre/postemergence bedstraw; type: in vivo, Galium aparine; settings: Preemergence
Procedure, shortened: (§1)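 Test chemicals in a non-phytotoxic solvent mixture with surfactant were sprayed preemergence onto planted seeds and postemergence onto plants 2 to 18 cm tall (1- to 4-leaf stage). After twelve to sixteen days in a greenhouse, injury was visually rated against untreated controls from 0 (no effect) to 10 (complete control).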

[2] = system: blackgrass; assay: Test B pre/postemergence blackgrass; type: in vivo, Alopecurus myosuroides
Procedure, shortened: as §1

[3] = system: surinam grass; assay: Test B pre/postemergence surinam grass; type: in vivo, Brachiaria decumbens
Procedure, shortened: as §1

[4] = system: cocklebur; assay: Test B pre/postemergence cocklebur; type: in vivo, Xanthium strumarium
Procedure, shortened: as §1

[5] = system: corn; assay: Test B pre/postemergence corn; type: in vivo, Zea mays
Procedure, shortened: as §1

[6] = system: crabgrass; assay: Test B pre/postemergence crabgrass; type: in vivo, Digitaria sanguinalis
Procedure, shortened: as §1

[7] = system: pigweed; assay: Test B pre/postemergence pigweed; type: in vivo, Amaranthus retroflexus
Procedure, shortened: as §1

[8] = system: rape; assay: Test B pre/postemergence rape; type: in vivo, Brassica napus
Procedure, shortened: as §1

[9] = system: soybean; assay: Test B pre/postemergence soybean; type: in vivo, Glycine max
Procedure, shortened: as §1

[10] = system: sugar beet; assay: Test B pre/postemergence sugar beet; type: in vivo, Beta vulgaris
Procedure, shortened: as §1

[11] = system: velvetleaf; assay: Test B pre/postemergence velvetleaf; type: in vivo, Abutilon theophrasti
Procedure, shortened: as §1

[12] = system: wheat; assay: Test B pre/postemergence wheat; type: in vivo, Triticum aestivum
Procedure, shortened: as §1

[13] = system: wild oat; assay: Test B pre/postemergence wild oat; type: in vivo, Avena fatua
Procedure, shortened: as §1

[14] = system: purple nutsedge; assay: Test B pre/postemergence purple nutsedge; type: in vivo, Cyperus rotundus
Procedure, shortened: as §1

[15] = system: smallflower flatsedge; assay: Test B flood test smallflower flatsedge; type: in vivo, Cyperus difformis
Procedure, shortened: (§2)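 Read-out is a visual response score from 0 (no effect) to 10 (complete control), assigned by comparison with untreated controls. Treatment was applied at the 2-leaf stage, and plants stayed in the greenhouse for twelve to sixteen days before scoring.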

[16] = system: bamyardgrass; assay: Test B flood test barnyardgrass; type: in vivo, Echinochloa crus-galli
Procedure, shortened: as §2

[17] = Postemergence, Rate 62 g/ha, scale 0 to 10, 0 is no effect, 10 is complete control
[18] = Postemergence, Rate 125 g/ha, scale of 0 to 10 where 0 is no effect and 10 is complete control
[19] = Postemergence, Rate 250 g/ha, scale of 0 to 10, 0 is no effect, 10 is complete control
[20] = Postemergence, Rate 500 g/ha, scale of 0 to 10 where 0 is no effect and 10 is complete control
[21] = Preemergence, Rate 62 g/ha, scale 0 to 10 (0 no effect, 10 complete control)
[22] = Preemergence, Rate 125 g/ha, scale of 0 to 10 where 0 is no effect and 10 is complete control
[23] = Preemergence, Rate 500 g/ha, scale of 0 to 10 where 0 is no effect and 10 is complete control
[24] = Rate 62 g/ha, flood test species, Pre-emergence, visual evaluation after twelve to sixteen days
[25] = Rate 125 g/ha, under heading Pre-emergence, flood test species, visual evaluation after twelve to sixteen days
[26] = Rate 250 g/ha, Pre-emergence (flood test species), scale 0 to 10, 0 is no effect, 10 is complete control
[27] = Rate 500 g/ha, Pre-emergence section of Table B, 0 to 10 scale (0 no effect, 10 complete control)

For `CC(C)N(C(=O)n1oc(=O)n(CC(C)[N+](=O)[O-])c1=O)c1ccccc1` (centres unmarked) [Compound 604], the “Bedstraw plant response rating (0 to 10 scale)” value ([1]; Rate 250 g/ha) was 0, the “Bedstraw plant response rating” value ([1]; Rate 500 g/ha, scale of 0 to 10 where 0 is no effect and 10 is complete control) was 0 and the “Plant response rating, Blackgrass” value [2, 17] was 0. The “Plant response rating, Blackgrass” value [2, 18] was 0, the “Blackgrass plant response rating” value [2, 19] was 0 and the “Plant response rating, Blackgrass” value [2, 20] was 0. The “Blackgrass plant response rating” value [2, 21] was 0, the “Blackgrass plant response rating” value [2, 22] was 0 and the “Blackgrass plant response rating (0 to 10 scale)” value ([2]; Preemergence, Rate 250 g/ha) was 0. The “Blackgrass plant response rating” value [2, 23] was 0, the “Plant response rating, B. signalgrass” value [3, 17] was 0 and the “Plant response rating, B. signalgrass” value [3, 18] was 0. The “B. signalgrass plant response rating” value [3, 19] was 0, the “Plant response rating, B. signalgrass” value [3, 20] was 0 and the “B. signalgrass plant response rating” value [3, 21] was 0. The “B. signalgrass plant response rating” value [3, 22] was 0, the “B. signalgrass plant response rating (0 to 10 scale, 0 is no effect, 10 is complete control)” value ([3]; Preemergence, Rate 250 g/ha) was 0 and the “B. signalgrass plant response rating” value [3, 23] was 0. For the same compound, the “Plant response rating, Cocklebur” value [4, 17] was 0, the “Plant response rating, Cocklebur” value [4, 18] was 0 and the “Cocklebur plant response rating” value [4, 19] was 0. For the same compound, the “Plant response rating, Cocklebur” value [4, 20] was 0, the “Cocklebur plant response rating” value [4, 21] was 0 and the “Cocklebur plant response rating” value [4, 22] was 0. The “Cocklebur plant response rating (0 to 10 scale)” value ([4]; Preemergence, Rate 250 g/ha) was 0, the “Plant response rating, Cocklebur” value [4, 23] was 0 and the “Plant response rating, Corn” value [5, 17] was 0. For the same compound, the “Plant response rating, Corn” value [5, 18] was 0, the “Corn plant response rating” value [5, 19] was 0 and the “Plant response rating, Corn” value [5, 20] was 0. For the same compound, the “Corn plant response rating” value [5, 21] was 0, the “Corn plant response rating” value [5, 22] was 0 and the “Corn plant response rating (0 to 10 scale)” value ([5]; Preemergence, Rate 250 g/ha) was 0. The “Plant response rating, Corn” value [5, 23] was 0, the “Plant response rating, Crabgrass” value [6, 17] was 1 and the “Crabgrass plant response rating” value [6, 19] was 3. For the same compound, the “Plant response rating, Crabgrass” value [6, 20] was 3, the “Crabgrass plant response rating” value [6, 21] was 0 and the “Crabgrass plant response rating” value [6, 22] was 0. The “Plant response rating, Crabgrass” value [6, 23] was 1, the “Plant response rating, Redroot pigweed” value [7, 17] was 0 and the “Plant response rating, Redroot pigweed” value [7, 18] was 0. The “Redroot pigweed plant response rating” value [7, 19] was 0, the “Plant response rating, Redroot pigweed” value [7, 20] was 0 and the “Redroot pigweed plant response rating” value [7, 21] was 0. The “Redroot pigweed plant response rating” value [7, 22] was 0, the “Plant response rating, Redroot pigweed” value [7, 23] was 0 and the “Plant response rating, Rape” value [8, 17] was 0. For the same compound, the “Plant response rating, Rape” value [8, 18] was 0, the “Rape plant response rating” value [8, 19] was 0 and the “Plant response rating, Rape” value [8, 20] was 0. The “Rape plant response rating” value [8, 21] was 0, the “Rape plant response rating” value [8, 22] was 0 and the “Plant response rating, Rape” value [8, 23] was 0. For the same compound, the “Plant response rating, Soybean” value [9, 17] was 0, the “Plant response rating, Soybean” value [9, 18] was 1 and the “Soybean plant response rating” value [9, 19] was 1. For the same compound, the “Plant response rating, Soybean” value [9, 20] was 1, the “Soybean plant response rating” value [9, 21] was 0 and the “Soybean plant response rating” value [9, 22] was 0. The “Plant response rating, Soybean” value [9, 23] was 0, the “Plant response rating, Sugarbeets” value [10, 17] was 0 and the “Plant response rating, Sugarbeets” value [10, 18] was 0. For the same compound, the “Sugarbeets plant response rating” value [10, 19] was 0, the “Plant response rating, Sugarbeets” value [10, 20] was 0 and the “Sugarbeets plant response rating” value [10, 21] was 0. The “Sugarbeets plant response rating” value [10, 22] was 0, the “Plant response rating, Sugarbeets” value [10, 23] was 0 and the “Plant response rating, Velvetleaf” value [11, 17] was 0. The “Plant response rating, Velvetleaf” value [11, 18] was 0, the “Velvetleaf plant response rating” value [11, 19] was 0 and the “Plant response rating, Velvetleaf” value [11, 20] was 0. For the same compound, the “Velvetleaf plant response rating” value [11, 21] was 0, the “Velvetleaf plant response rating” value [11, 22] was 0 and the “Plant response rating, Velvetleaf” value [11, 23] was 0. For the same compound, the “Plant response rating, Wheat” value [12, 17] was 0, the “Plant response rating, Wheat” value [12, 18] was 0 and the “Wheat plant response rating” value [12, 19] was 0. For the same compound, the “Plant response rating, Wheat” value [12, 20] was 0, the “Wheat plant response rating” value [12, 21] was 0 and the “Wheat plant response rating” value [12, 22] was 0. For the same compound, the “Plant response rating, Wheat” value [12, 23] was 0, the “Plant response rating, Wild oats” value [13, 17] was 0 and the “Plant response rating, Wild oats” value [13, 18] was 0. The “Wild oats plant response rating” value [13, 19] was 0, the “Plant response rating, Wild oats” value [13, 20] was 0 and the “Wild oats plant response rating” value [13, 21] was 0. The “Wild oats plant response rating” value [13, 22] was 0, the “Plant response rating, Wild oats” value [13, 23] was 0 and the “Plant response rating, Nutsedge” value [14, 17] was 0. The “Plant response rating, Nutsedge” value [14, 18] was 0, the “Nutsedge plant response rating” value [14, 19] was 0 and the “Plant response rating, Nutsedge” value [14, 20] was 0. The “Nutsedge plant response rating” value [14, 21] was 0, the “Nutsedge plant response rating” value [14, 22] was 0 and the “Plant response rating, Nutsedge” value [14, 23] was 0. For the same compound, the “Plant response rating, S. Flatsedge (0 to 10 scale, 0 is no effect, 10 is complete control)” value [15, 24] was 0, the “S. Flatsedge plant response rating (0 to 10 scale, 0 is no effect, 10 is complete control)” value [15, 25] was 0 and the “S. Flatsedge plant response rating” value [15, 26] was 0. The “S. Flatsedge plant response rating” value [15, 27] was 0, the “Plant response rating, Barnyardgrass (0 to 10 scale, 0 is no effect, 10 is complete control)” value [16, 24] was 0 and the “Barnyardgrass plant response rating (0 to 10 scale, 0 is no effect, 10 is complete control)” value [16, 25] was 0. For the same compound, the “Barnyardgrass plant response rating” value [16, 26] was 0 and the “Barnyardgrass plant response rating” value [16, 27] was 0.
